From patent US20250122146A1, “COMPOUNDS FOR REDUCING NEUROINFLAMMATION” (THE SCRIPPS RESEARCH INSTITUTE, priority 2021, published 2025)
“Also recorded” adds a separate entry of the source.

Columns and labels:
[1] = test system: human iPSC-derived microglia (hiMG); test: TNF release from hiMG exposed to oligomeric Aβ and αSyn with their antibodies, ELISA; assay type: cell-based; conditions: oligomeric Aβ (~750 nM oligomers) + oligomeric αSyn (~100 nM) with anti-αSyn & anti-Aβ antibodies; carnosic acid 2 μM; n=3 per group
Experimental: (§1) Proinflammatory microglial activation. Following a protocol adapted from D. Trudler et al. (2021), human induced pluripotent stem cell (hiPSC)-derived microglia (hiMG) were plated at a concentration of 1×10^6 cells/mL. 16 h before the experiment the cell medium was changed to IMDM (no supplements added). Carnosic acid (CA, purity >99%) was added 16 hours before the experiment, at a concentration of 2 μM. Recombinant αSyn oligomers (100 nM) and oligomeric Aβ (10 μM) were incubated with 2.5 μg/mL of their respective antibodies for 1 h prior to adding to hiMG for additional 6 hours. Media was collected and cytokine levels, IL-1β or tumor necrosis factor (TNF), were measured by ELISA per the manufacturer's instructions.
(§2) Carnosic Acid Reduces Neuroinflammation Induced by Antibody-Misfolded Protein Complex. NLRP3 inflammasome activation was assessed by measuring the release of the proinflammatory cytokine interleukin-1β (IL-1β) from hiMG exposed to (A) oligomeric Aβ (500 nM oligomers) and low concentrations of oligomeric αSyn (100 nM), (B) Aβ and αSyn with their cognate human antibodies (anti-Aβ and anti-αSyn, respectively), and (C) same as (B) with carnosic acid.

[2] = test system: HSF-1 and Nrf2 transcription pathways; conditions: literature statement (Satoh et al. 2015); cited from earlier work
Nrf2/ARE pathway = conditions: literature statement; cited from earlier work
[3] = test system: neural damage / oxidative stress; conditions: literature statement; cited from earlier work
[4] = test system: human iPSC-derived microglia (hiMG); test: IL-1β release (NLRP3 inflammasome activation) from hiMG exposed to oligomeric Aβ and αSyn with their antibodies, ELISA; assay type: cell-based; conditions: oligomeric Aβ (~500 nM oligomers) + oligomeric αSyn (~100 nM) with anti-αSyn & anti-Aβ antibodies; carnosic acid 0.1-10 μM; n=3 per group
Experimental: as §1, §2

SMILES | TNF release from hiMG [1] | activation of HSF-1 and Nrf2 transcription pathways [2] | activation of the Nrf2/ARE pathway (Nrf2/ARE pathway) | neuroprotective effect [3] | IL-1β release from hiMG [4]
CC(C)c1cc2c(c(O)c1O)[C@@]1(C(=O)O)CCCC(C)(C)[C@@H]1CC2 [Carnosic acid, carnosic acid] | significantly reduced TNF release; also recorded: significantly reduced the type of inflammation | activates both the HSF-1 and Nrf2 transcription pathways | activates the Nrf2/ARE pathway | affording protection against neural damage | significantly reduced IL-1β release; also recorded: reduction in IL-1β
C=C1CC[C@@H]2C(C)(C)CCCC2(C)C1Cc1cc(O)ccc1O (stereo partly shown) [Zonarol, zonarol] | – | – | activate the Nrf2/ARE pathway | exert neuroprotective effects against oxidative stress | –
